# Assay results as given in US20250185651A1, “COMPOSITION FOR PESTICIDE PHYTOTOXICITY REDUCTION COMPRISING AMINO ACID” (CJ CheilJedang Corporation, priority 2021, published 2025).
# System: soybeans (Glycine max)
# Assay: Example 1: soybean seed treatment with fluensulfone plus a single amino acid (pesticide phytotoxicity reduction)
# Format: in vivo
# Settings: conclusion of Example 1; soybean seeds, 0.1% (w/v) amino acid
# Experimental: To 10 g of seeds of soybeans (scientific name: Glycine max), fluensulfone (Nimitz, ADAMA, 40% (w/v) Fluensulfone-containing product) or fluensulfone with 1 ml of 0.1% (w/v) amino acid solution were treated as a pesticide. […] The treatment groups were as Table 1 below.
# After mixing the solutions of each group well, they were sufficiently mixed for about 1 minute so that the solutions were evenly applied to soybean seeds. After than, they were taken out in a sample dish and air-drying was performed until the solutions were dried.
# Soybean seeds were sown, and the germination rate was measured by counting the number of germinated seeds among all the seeds in 7 days after sowing, and this was shown in FIG. 1.
# In 20 days after sowing, the length of the shoots (from the ground to the growth point) was measured with a ruler and this was shown in FIG. 2, and the photographs of the shoots and roots were shown in FIG. 3 and FIG. 4.
row,SMILES,phytotoxicity by fluensulfone
1,N[C@@H](Cc1c[nH]cn1)C(=O)O [histidine],reduced
2,CC(C)C[C@H](N)C(=O)O [leucine],reduced
3,N[C@@H](CCC(=O)O)C(=O)O.[Na] [sodium glutamic acid],reduced
